Results published in patent US20100093642A1, “NOVEL POLYPEPTIDES” (priority 2006, published 2010).
pIC50: −log10 of the molar value. Converted amounts (≈) assume the structure as drawn. Residues, ends and D or L forms follow the SMILES beside them. No end group written: not given here.

Assays:
Format in all cases: cell-based
[1] = system: Listonella (Vibrio) anguillarum, serotype O2 (FT 1801)
How it was run: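 Peptide fractions were incubated with actively growing bacteria in Mueller Hinton medium at a starting concentration of 3×10^4 cells per ml. Growth was monitored continuously in a Bioscreen C reader; polymyxin B served as reference.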

[2] = system: human skin malignant melanoma cell line A2058; conditions: human, 24 h
[3] = system: human breast malignant carcinoma cell line MCF-7; conditions: human, 24 h
[4] = system: murine B lymphoma (reticulum cell sarcoma) cell line A20; conditions: 4 h
Method: The cytotoxic effects of the peptides on different human tumour cells were measured using the MTT colorimetric assay (Mosmann, 1983). MIT (3-(4-5-dimethylthiazol-2-yl)-2,5-diphenyl tetrazolium bromide) is a soluble tetrazolium salt yielding a yellow solution when prepared in media or salt solutions lacking phenol red. Dissolved MIT is converted to an insoluble purple formazan by cleavage of the tetrazolium ring by dehydrogenase enzymes. This water insoluble formazan can be solubilized using isopropanol or other solvents and the dissolved material is measured spectrophotometrically. The absorbance was measured as a function of concentration of converted dye. The conversion of the soluble dye to the insoluble purple formazan is utilized in assays for measurement of cell proliferation. […] We used this assay to measure the degree of cell death caused by the peptides.
CT26 and A20 were maintained in RPMI-1640 medium supplemented with 10% heat inactivated FBS and 1% L-glutamine in a humidified atmosphere of 5% CO2 at 37° C. The human embryonic fibroblast cell line, MRC-5, was cultured as a monolayer in MEM medium, under the same conditions as described for the tumour cell lines. CT26 and MRC-5 cells to be used in the assay were grown to a minimum of 75% confluency, trypsinated and split to single cell suspension, counted and centrifuged at 1500 rpm for 7 min. The cell pellet was resuspended to a concentration of 1-2×10^5 cells/ml in RPMI-1640 medium without FBS and L-glutamine-L-alanine (assay-medium). The A20 cells were grown in suspension and adjusted to a concentration of 6×10^5 cells/ml in assay medium. All cell lines were routinely tested for mycoplasma infection using a PCR-based mycoplasma detection kit (MycoSensor PCR Assay Kit, Stratagene), following the supplier's instructions. All cell lines were mycoplasma free.
The cytotoxicity was measured using the MTT method (Mosmann, 1983), with minor modifications. The adherent cells (CT26 and MRC-5) were applied in 96-well culture plates in a volume of 100 μl assay medium and incubated at 37° C. for 24 hours. The A20 cells were applied to the microtiter plates just prior to testing. The medium was removed and the cells were treated with 100 μl of peptide solution (concentrations ranging from 0 to 400 μg/ml), diluted in serum-free medium, and the plates were incubated at 37° C. for 4 hours. Cells treated with Triton X-100 (1%) were used as positive control (100% killing) whereas cells plus medium only were used as negative control. Following the incubation period, 10 and 20 μl MTT (5 mg/ml, dissolved in PBS) were added to each well in the adherent cells (CT26 and MRC-5) and the A20 cells, respectively. After further incubation for 2 hours, a volume of 70 μl of the supernatant was removed and 100 μl acid alcohol (0.04 M HCl in isopropanol) added to each well in the adherent cell lines. For the cells grown in suspension (A20), a volume of 130 μl of the supernatant was removed and 100 μl acid alcohol was added. The plates were placed on a shaker for 1 hour at room temperature and read spectrophotometrically at 590 nm in a microtiter plate reader (Thermomax Molecular devices, New Jersey, USA). Cell survival (%, averaging at least 2 parallels) and IC50 values were estimated as described above.

Molecule | Minimal inhibitory concentration, L. anguillarum [1] | pIC50 [2] | pIC50 [3] | pIC50 [4]
CC[C@H](C)[C@H](NC(=O)CNC(=O)[C@H](CO)NC(=O)[C@H](CCCCN)NC(=O)[C@@H](NC(=O)[C@H](C)NC(=O)[C@H](Cc1c[nH]cn1)NC(=O)[C@H](CO)NC(=O)[C@@H](NC(=O)[C@H](CCCCN)NC(=O)[C@H](Cc1c[nH]cn1)NC(=O)[C@H](Cc1ccccc1)NC(=O)[C@@H](NC(=O)[C@H](CCCCN)NC(=O)[C@H](CCCCN)NC(=O)[C@H](Cc1ccccc1)NC(=O)C(Cc1c[nH]c2ccc(Br)cc12)NC(=O)CN)[C@@H](C)O)C(C)C)C(C)C)C(=O)N[C@@H](Cc1c[nH]cn1)C(=O)N[C@@H](C)C(=O)NCC(=O)N[C@@H](CCC(N)=O)C(=O)N[C@@H](CCCNC(=N)N)C(=O)NCC(=O)N[C@@H](CS)C(=O)N[C@@H](CO)C(=O)N[C@@H](C)C(=O)N[C@@H](CC(C)C)C(=O)NCC(=O)N[C@@H](Cc1ccccc1)C(=O)O (some centres unmarked) [P17 HC-Br] (HELM PEPTIDE1{G.[O=C(C(Cc1c[nH]c2ccc(Br)cc12)N[*:1])[*:2]].F.K.K.T.F.H.K.V.S.H.A.V.K.S.G.I.H.A.G.Q.R.G.C.S.A.L.G.F}$$$$V2.0) | 0.78 µM (≈ 2.59 µg/mL) | > 5.00 | > 5.00 | 4.62
GWFKKTFHKVSHAVKSGIHAGQRGCSALGF [P17 HC] | 0.78 µM | > 5.00 | > 5.00 | 5.41
